Read-outs that look alike come from different tables or passages of the source.
Biological target: T1, Rhesus PDE2A3 (Macaca mulatta, UniProt B3VTJ2)
T1 construct: made in house; host or cells: AD293 cells, transient transfection; supernatant of sonicated lysate
T1 sequence (B3VTJ2 1-941): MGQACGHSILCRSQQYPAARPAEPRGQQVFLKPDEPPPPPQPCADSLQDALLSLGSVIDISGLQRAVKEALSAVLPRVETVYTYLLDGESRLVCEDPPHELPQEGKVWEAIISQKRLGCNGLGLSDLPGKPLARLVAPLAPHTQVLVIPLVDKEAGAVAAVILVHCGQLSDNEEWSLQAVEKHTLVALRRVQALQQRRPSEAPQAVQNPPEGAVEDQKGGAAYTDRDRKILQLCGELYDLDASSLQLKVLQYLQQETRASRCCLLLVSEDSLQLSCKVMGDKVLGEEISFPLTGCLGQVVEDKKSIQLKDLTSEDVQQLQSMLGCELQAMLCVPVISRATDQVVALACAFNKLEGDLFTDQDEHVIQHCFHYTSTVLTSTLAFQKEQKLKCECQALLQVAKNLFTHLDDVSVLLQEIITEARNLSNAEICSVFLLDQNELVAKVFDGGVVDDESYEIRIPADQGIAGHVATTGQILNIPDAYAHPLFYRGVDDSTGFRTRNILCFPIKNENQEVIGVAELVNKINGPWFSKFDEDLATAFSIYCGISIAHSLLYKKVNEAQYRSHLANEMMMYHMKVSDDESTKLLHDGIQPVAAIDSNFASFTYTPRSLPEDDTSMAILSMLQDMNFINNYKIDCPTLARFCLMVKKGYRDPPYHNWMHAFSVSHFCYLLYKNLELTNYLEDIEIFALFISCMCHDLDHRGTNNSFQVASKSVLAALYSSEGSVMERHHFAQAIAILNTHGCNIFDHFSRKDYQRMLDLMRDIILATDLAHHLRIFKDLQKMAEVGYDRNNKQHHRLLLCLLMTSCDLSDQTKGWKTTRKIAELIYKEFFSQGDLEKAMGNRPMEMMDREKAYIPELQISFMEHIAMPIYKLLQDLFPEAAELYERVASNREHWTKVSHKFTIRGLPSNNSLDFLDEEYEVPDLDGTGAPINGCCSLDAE
Experiment: PDE2 fluorescence polarization (IMAP FP) inhibition assay, rhesus PDE2A3
Assay type: biochemical, rhesus macaque
Procedure, shortened: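 Enzyme source was the lysate supernatant of AD293 cells transiently expressing rhesus PDE2A3, diluted to give 20% conversion of 50 nM FAM-cAMP, with 1 µM cGMP as activator. Buffer was 10 mM Tris pH 7.2, 10 mM MgCl2, 1 mM DTT.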

[1] = Lab B, read-out: Rhesus PDE2 Ki (nM) Lab B
[2] = Lab A, read-out: Rhesus PDE2 Ki (nM) Lab A

Row | Ki [1] | Ki [2] | Compound
1 | 3.2 nM |  | COCc1nc2c(c(CF)nn2C(C)c2ccc(C(F)(F)F)cc2)c(=O)[nH]1 (stereo not drawn) [Example 205, 3-(Fluoromethyl)-6-(methoxymethyl)-1-{1-[4-(trifluoromethyl)phenyl]ethyl}-1,5-dihydro-4H-pyrazolo[3,4-d]pyrimidin-4-one]
2 |  | 134 nM | Cc1nc2c(c(C(C)(C)O)nn2C(C)c2ccc(C(F)(F)F)cc2)c(=O)[nH]1 (stereo not drawn) [Example 326, 3-(1-Hydroxy-1-methylethyl)-6-methyl-1-{1-[4-(trifluoromethyl)phenyl]ethyl}-1,5-dihydro-4H-pyrazolo[3,4-d]pyrimidin-4-one]
3 | 33 nM | 22 nM | Cc1nc2c(c(C(C)O)nn2C(C)c2ccc(C(F)(F)F)cc2)c(=O)[nH]1 (stereo not drawn) [Example 328, 3-(1-Hydroxyethyl)-6-methyl-1-{1-[4-(trifluoromethyl)phenyl]ethyl}-1,5-dihydro-4H-pyrazolo[3,4-d]pyrimidin-4-one]

Second part, the compound before the results:

Row | Compound | Ki [1] | Ki [2]
4 | Cc1nc2c(c(CF)nn2C(C)c2ccc(C(F)(F)F)c(F)c2)c(=O)[nH]1 (stereo not drawn) [Example 230, 1-(1-(3-Fluoro-4-(trifluoromethyl)phenyl)ethyl)-3-(fluoromethyl)-6-methyl-1H-pyrazolo[3,4-d]pyrimidin-4(5H)-one] | 3.4 nM | 2.3 nM
5 | Cc1nc2c(c(CF)nn2C(c2ccc(C(F)(F)F)cc2)C2CC2)c(=O)[nH]1 (stereo not drawn) [Example 231, 1-(cyclopropyl(4-(trifluoromethyl)phenyl)methyl)-3-(fluoromethyl)-6-methyl-1H-pyrazolo[3,4-d]pyrimidin-4(5H)-one] | 1.2 nM | 0.87 nM
6 | Cc1nc2c(c(CCl)nn2C(c2ccc(C(F)(F)F)cc2)C2CC2)c(=O)[nH]1 (stereo not drawn) [Example 232, 3-(chloromethyl)-1-(cyclopropyl(4-(trifluoromethyl)phenyl)methyl)-6-methyl-1H-pyrazolo[3,4-d]pyrimidin-4(5H)-one] | 0.85 nM | 0.47 nM
7 | Cc1nc2c(c(C(O)C(F)(F)F)nn2C(C)c2ccc(C(F)(F)F)cc2)c(=O)[nH]1 (stereo not drawn) [Example 327, 6-Methyl-3-(2,2,2-trifluoro-1-hydroxyethyl)-1-{1-[4-(trifluoromethyl)phenyl]ethyl}-1,5-dihydro-4H-pyrazolo[3,4-d]pyrimidin-4-one] |  | 93 nM
8 | CCC(CCCc1ccccc1)n1nc(C)c2c(=O)[nH]c(C)nc21 (stereo not drawn) [Example 338, 1-(1-ethyl-4-phenylbutyl)-3,6-dimethyl-1,5-dihydro-4H-pyrazolo[3,4-d]pyrimidin-4-one] |  | 113 nM
